Measurements as given in ChEMBL document CHEMBL1201862, “PubChem BioAssay data set” (2004).
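Following 48 hours of exposure in 96-well plates, responses at five concentrations were used to interpolate endpoints linearly. GI50 marks 50% less growth.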 The source made the active and inactive calls. Rule as the data show it: active = GI50 up to about 1.1 µM and inactive = higher.

Tests used:
Test in all cases: inhibition of tumour cell growth, NCI panel, 48 h
HL-60 = test system: HL-60
HOP-92 = test system: HOP-92
UO-31 = test system: UO-31
ACHN = test system: ACHN
U-251 = test system: U-251
DU-145 = test system: DU-145
NCI/ADR-RES = test system: NCI/ADR-RES
OVCAR-8 = test system: OVCAR-8
PC-3 = test system: PC-3
HCC 2998 = test system: HCC 2998
SF-295 = test system: SF-295
KM12 = test system: KM12
K562 = test system: K562
SNB-19 = test system: SNB-19
SR = test system: SR
MDA-MB-435 = test system: MDA-MB-435
Hs-578T = test system: Hs-578T
HT-29 = test system: HT-29
TK-10 = test system: TK-10
HCT-15 = test system: HCT-15
EKVX = test system: EKVX
SW-620 = test system: SW-620
SK-MEL-2 = test system: SK-MEL-2
HCT-116 = test system: HCT-116
NCI-H460 = test system: NCI-H460
SK-MEL-28 = test system: SK-MEL-28
UACC-62 = test system: UACC-62
A549 = test system: A549
SF-539 = test system: SF-539
IGROV-1 = test system: IGROV-1
OVCAR-5 = test system: OVCAR-5
NCI-H226 = test system: NCI-H226
786-0 = test system: 786-0
SN12C = test system: SN12C
SF-268 = test system: SF-268
T47D = test system: T47D
MDA-N = test system: MDA-N
MCF7 = test system: MCF7
NCI-H522 = test system: NCI-H522
SK-OV-3 = test system: SK-OV-3
RPMI-8226 = test system: RPMI-8226
OVCAR-3 = test system: OVCAR-3
SNB-75 = test system: SNB-75
MOLT-4 = test system: MOLT-4
MDA-MB-231 = test system: MDA-MB-231
UACC-257 = test system: UACC-257
BT-549 = test system: BT-549
COLO 205 = test system: COLO 205
SK-MEL-5 = test system: SK-MEL-5
Malme-3M = test system: Malme-3M
CAKI-1 = test system: CAKI-1
HOP-62 = test system: HOP-62
A498 = test system: A498
M14 = test system: M14
OVCAR-4 = test system: OVCAR-4
RXF 393 = test system: RXF 393
LOX IMVI = test system: LOX IMVI
NCI-H23 = test system: NCI-H23
CCRF-CEM = test system: CCRF-CEM

Measured: GI50

COc1cc2ccc(C(C)NCC#N)cc2cc1OC (stereo not drawn)
> 100 µM: HCT-15
inactive: HL-60 46.5 µM | HOP-92 > 100 µM | UO-31 > 100 µM | ACHN > 100 µM | U-251 > 100 µM | DU-145 > 100 µM | NCI/ADR-RES > 100 µM | OVCAR-8 > 100 µM | PC-3 > 100 µM | HCC 2998 36.4 µM | SF-295 > 100 µM | KM12 > 100 µM | K562 > 100 µM | SNB-19 > 100 µM | SR 28.1 µM | MDA-MB-435 > 100 µM | Hs-578T > 100 µM | HT-29 75.2 µM | TK-10 > 100 µM | EKVX > 100 µM | SW-620 > 100 µM | SK-MEL-2 > 100 µM | HCT-116 > 100 µM | NCI-H460 > 100 µM | SK-MEL-28 > 100 µM | UACC-62 > 100 µM | A549 > 100 µM | SF-539 > 100 µM | IGROV-1 > 100 µM | OVCAR-5 > 100 µM | NCI-H226 > 100 µM | 786-0 > 100 µM | SN12C > 100 µM | SF-268 > 100 µM | T47D > 100 µM | MDA-N > 100 µM | MCF7 > 100 µM | NCI-H522 > 100 µM | SK-OV-3 > 100 µM | RPMI-8226 > 100 µM | OVCAR-3 > 100 µM | SNB-75 > 100 µM | MOLT-4 28.8 µM | MDA-MB-231 > 100 µM | UACC-257 > 100 µM | BT-549 > 100 µM | COLO 205 > 100 µM | SK-MEL-5 > 100 µM | Malme-3M > 100 µM | CAKI-1 > 100 µM | HOP-62 > 100 µM | A498 > 100 µM | M14 > 100 µM | OVCAR-4 > 100 µM | RXF 393 > 100 µM | LOX IMVI > 100 µM

CC[C@H]1C=CCC[C@@]2(C[C@@H]3CC[C@@H]4[C@H](C(=O)OCCCCCCCCCCCCCCCC(=O)N(CCCN)C[C@@H](O)CCN)[C@]5(CCC[C@@H](C)O5)NC(=[N+]34)N2)O1
active: HL-60 0.318 µM | HOP-92 0.158 µM | UO-31 0.337 µM | ACHN 0.349 µM | U-251 0.381 µM | DU-145 0.731 µM | NCI/ADR-RES 0.733 µM | OVCAR-8 0.451 µM | PC-3 0.385 µM | HCC 2998 0.175 µM | SF-295 0.518 µM | KM12 0.447 µM | K562 0.236 µM | SNB-19 0.0822 µM | SR 0.0802 µM | MDA-MB-435 0.0524 µM | HT-29 0.299 µM | EKVX 0.897 µM | SW-620 0.352 µM | SK-MEL-2 0.229 µM | HCT-116 0.286 µM | NCI-H460 0.443 µM | UACC-62 0.0678 µM | A549 0.282 µM | SF-539 0.556 µM | IGROV-1 0.239 µM | OVCAR-5 0.083 µM | NCI-H226 0.968 µM | 786-0 0.143 µM | NCI-H23 0.92 µM | SN12C 0.766 µM | SF-268 0.544 µM | T47D 0.824 µM | MDA-N 0.127 µM | MCF7 0.46 µM | NCI-H522 0.174 µM | RPMI-8226 0.0855 µM | OVCAR-3 0.887 µM | MOLT-4 0.0869 µM | MDA-MB-231 0.748 µM | UACC-257 0.122 µM | BT-549 0.807 µM | COLO 205 0.316 µM | SK-MEL-5 0.0407 µM | Malme-3M 0.245 µM | CAKI-1 0.0528 µM | A498 0.625 µM | M14 0.0249 µM | OVCAR-4 0.474 µM | RXF 393 0.439 µM | LOX IMVI 0.248 µM
0.41 µM: HCT-15
inactive: Hs-578T 1.21 µM | TK-10 1.44 µM | SK-MEL-28 1.27 µM | SK-OV-3 2.05 µM | HOP-62 1.13 µM

CCN(CC)C(=S)N/N=C/c1cc(OC)ccc1O
inactive: HL-60 2.46 µM | ACHN 2.98 µM | U-251 3.61 µM | DU-145 5.86 µM | NCI/ADR-RES 2.58 µM | OVCAR-8 4.51 µM | PC-3 8.85 µM | HCC 2998 3.86 µM | SF-295 4.11 µM | KM12 1.7 µM | K562 4.52 µM | SNB-19 8.91 µM | SR 2.76 µM | MDA-MB-435 6.18 µM | Hs-578T 69.8 µM | HT-29 7 µM | TK-10 4.3 µM | EKVX 10.4 µM | SW-620 8.28 µM | SK-MEL-2 74.1 µM | HCT-116 4.86 µM | NCI-H460 1.66 µM | SK-MEL-28 3.72 µM | UACC-62 4.25 µM | A549 4.17 µM | SF-539 6.97 µM | IGROV-1 6.37 µM | OVCAR-5 57.5 µM | NCI-H226 3.03 µM | 786-0 2.75 µM | NCI-H23 7.98 µM | SN12C 5.79 µM | SF-268 1.87 µM | T47D 7.28 µM | MDA-N 6.68 µM | MCF7 3.84 µM | NCI-H522 3.85 µM | SK-OV-3 5.21 µM | OVCAR-3 2.1 µM | SNB-75 19.4 µM | MOLT-4 2.09 µM | MDA-MB-231 30.7 µM | UACC-257 7.31 µM | BT-549 7.05 µM | COLO 205 3.86 µM | SK-MEL-5 6.22 µM | Malme-3M 4.23 µM | HOP-62 7.5 µM | A498 2.02 µM | M14 3.69 µM | OVCAR-4 3.56 µM | RXF 393 9.04 µM | LOX IMVI 2.32 µM
1.36 µM: HCT-15
active: UO-31 0.561 µM | CCRF-CEM 0.895 µM

O=C(Cc1ccc2ccccc2c1)NCc1ccc(C(=O)NCCc2ccccc2)cc1
inactive: HOP-92 > 100 µM | UO-31 > 100 µM | ACHN > 100 µM | U-251 > 100 µM | DU-145 > 100 µM | NCI/ADR-RES > 100 µM | OVCAR-8 > 100 µM | PC-3 > 100 µM | HCC 2998 > 100 µM | SF-295 > 100 µM | KM12 > 100 µM | K562 > 100 µM | SNB-19 > 100 µM | SR > 100 µM | MDA-MB-435 > 100 µM | Hs-578T > 100 µM | HT-29 94.4 µM | TK-10 > 100 µM | EKVX > 100 µM | SW-620 > 100 µM | SK-MEL-2 > 100 µM | HCT-116 > 100 µM | NCI-H460 > 100 µM | SK-MEL-28 > 100 µM | UACC-62 > 100 µM | A549 > 100 µM | CCRF-CEM 20.3 µM | IGROV-1 > 100 µM | OVCAR-5 > 100 µM | NCI-H226 > 100 µM | 786-0 > 100 µM | NCI-H23 > 100 µM | SN12C > 100 µM | SF-268 > 100 µM | T47D > 100 µM | MDA-N > 100 µM | MCF7 > 100 µM | NCI-H522 > 100 µM | SK-OV-3 > 100 µM | RPMI-8226 > 100 µM | OVCAR-3 > 100 µM | SNB-75 > 100 µM | MDA-MB-231 > 100 µM | UACC-257 > 100 µM | BT-549 > 100 µM | COLO 205 > 100 µM | SK-MEL-5 > 100 µM | Malme-3M > 100 µM | CAKI-1 > 100 µM | HOP-62 > 100 µM | A498 > 100 µM | M14 > 100 µM | OVCAR-4 > 100 µM | RXF 393 > 100 µM | LOX IMVI > 100 µM
> 100 µM: HCT-15

CN(C)/C=C/c1c2c(nc3ccccc13)C(=O)c1ccccc1C2=O
0.766 µM: HCT-15
inactive: HOP-92 1.95 µM | UO-31 1.82 µM | DU-145 1.38 µM | NCI/ADR-RES 1.71 µM | OVCAR-8 1.63 µM | HCC 2998 1.93 µM | KM12 1.34 µM | SNB-19 1.83 µM | HT-29 1.54 µM | TK-10 2.13 µM | EKVX 1.89 µM | SW-620 1.62 µM | A549 2.33 µM | SF-539 1.92 µM | IGROV-1 1.19 µM | OVCAR-5 3.15 µM | NCI-H226 1.15 µM | 786-0 1.92 µM | SN12C 1.26 µM | SF-268 1.77 µM | T47D 1.41 µM | NCI-H522 1.16 µM | SK-OV-3 3.91 µM | MDA-MB-231 1.55 µM | BT-549 1.77 µM | COLO 205 1.79 µM | CAKI-1 2.06 µM | A498 3.91 µM | OVCAR-4 1.58 µM | RXF 393 3.2 µM
active: HL-60 0.366 µM | ACHN 0.598 µM | U-251 0.991 µM | PC-3 0.752 µM | SF-295 0.875 µM | K562 0.151 µM | SR 0.449 µM | MDA-MB-435 0.357 µM | Hs-578T 1.04 µM | SK-MEL-2 1.12 µM | HCT-116 0.923 µM | NCI-H460 0.262 µM | SK-MEL-28 0.222 µM | UACC-62 0.25 µM | CCRF-CEM 0.78 µM | NCI-H23 0.194 µM | MDA-N 0.483 µM | MCF7 0.7 µM | RPMI-8226 0.0989 µM | MOLT-4 1.03 µM | UACC-257 0.498 µM | SK-MEL-5 0.175 µM | Malme-3M 0.71 µM | HOP-62 0.266 µM | M14 0.586 µM | LOX IMVI 0.067 µM
